A melting point compilation (Tetko et al.; mined from patent text by program, amines drawn as free bases though some values may be those of a salt)

BrCc1ccccc1-c1ccccc1CBr gave a melting point of 85 to 88 °C. For CCN(CC)C(=O)Oc1cc(-c2cccs2)nc2ccccc12, the melting point was 72 °C. Work on FC(F)(F)c1cccc(-c2cc(C3CCNCC3)nnc2-c2ccncc2)c1 yielded a melting point of 148 to 150 °C. Compound CCOC(=O)c1cn(Cc2ccccc2)nc1OCc1cccc(OCc2nc(-c3ccco3)oc2C)c1 has a melting point of 92 to 93 °C. For CCN(CC)Cc1cccn1N(C)c1ccnc2cc(C(F)(F)F)ccc12, the melting point was 64 to 66 °C. With COC(=O)c1c(OC)ccc(OC)c1N=CN(C)C the melting point was 81 to 83 °C. For CON(C)C(=O)c1ccc(-c2ccc(CN(C)C)cc2)cc1, the melting point was 42 to 43 °C. Work on COC(=O)c1cn(Cc2ccccc2F)cn1 yielded a melting point of 87 to 89 °C. CCCCCCCCCCCCc1ccc(S(=O)(=O)Nc2nnc(CC)s2)cc1 gave a melting point of 93 to 94 °C. Work on Fc1ccc(Nc2ncnc3cnc(OC4CCOCC4)nc23)cc1Cl yielded a melting point of 220 to 222 °C. With O=C1C[N+]([O-])=C(c2ccccc2F)c2cc(Cl)ccc2N1CC(O)CO (stereo not drawn) the melting point was 165 to 166 °C. Work on Fc1cccc(Nc2nc(OCC3CCCCC3)c3[nH]cnc3n2)c1 yielded a melting point of 224 to 227 °C. Work on CC(C)(C)C(NC(=O)Cc1ccc(Cl)cc1)NC(=NC#N)Nc1cccnc1Cl (stereo not drawn) yielded a melting point of 174 to 175 °C. Compound COC(=O)c1cc(Cl)c(Oc2ccc(OC)cc2)c(Cl)c1 has a melting point of 82 to 85 °C. In the case of O=C(Cl)c1c(-c2ccccc2)nn2c1-c1ccccc1CC2, the melting point is reported as 109 to 110 °C. Compound COc1ccc(C(=O)CC2CCCCCCC2=O)cc1 (stereo not drawn) has a melting point of 54 to 56 °C. For O=C1O[C@@H](Cn2ccnn2)CN1c1ccc(-c2ccc(CN3CCOCC3)nc2)c(F)c1, the melting point was 175 °C. In the case of CCOC(=O)c1c(C(F)(F)F)oc2ccc(C(F)(F)F)cc2c1=O, the melting point is reported as 116 to 120 °C. For CC1(C)Sc2nccn2C1=NOC(=O)CNSCNC(=O)ON=C1n2ccnc2SC1(C)C, the melting point was 177 to 180 °C. Work on Cc1cc2c3c(cc(C)c2[nH]c1=O)C(C)C(C(C)N)O3 (stereo not drawn) yielded a melting point of 195 to 207 °C. COc1nc(-c2ccccc2)c2c(n1)N(c1c(F)cccc1F)C(=O)NC2 gave a melting point of 221 to 224 °C. Work on O=C1CCCc2ccc(OCc3cccc(Cl)c3)cc21 yielded a melting point of 77 to 78 °C. Compound Cc1c(Cl)ccc2c(=O)n(CCCN3CC=C(c4ccc(Cl)cc4)CC3)c(=O)[nH]c12 has a melting point of 208 to 210 °C. With CC(=O)c1nnn(C[C@@H]2C[C@@H](S)CN2S(=O)(=O)c2ccc3ccccc3c2)c1C the melting point was 145 °C. With CN(C)C(=O)CC1Cc2ccccc2NC1=O (stereo not drawn) the melting point was 172 to 173 °C. CCCn1nc(-c2ccncc2)nc1-c1ccncc1 showed a melting point of 88 to 89 °C. Cc1n[nH]c(CCCCn2cnc(NC(N)=NCC(F)(F)F)n2)n1 showed a melting point of 175 to 176 °C. O=C(CCl)Nc1cccc(C(=O)Cl)c1 showed a melting point of 106 to 108 °C. CCN(CC)C(=O)c1c(I)ccc(F)c1[Si](C)(C)C gave a melting point of 58.5 to 64 °C. Work on CC(=O)OC1CSC(Oc2cccnc2F)C(OC(C)=O)C1OC(C)=O (stereo not drawn) yielded a melting point of 160 °C. Work on CCOC(=O)NCc1cccc2c1C(=O)N(C1CCC(=O)NC1=O)C2=O (stereo not drawn) yielded a melting point of 187 to 189 °C. Work on OCc1ccc(-c2ccc(-c3ccsc3)s2)s1 yielded a melting point of 158 to 160 °C. Compound Cc1cc(C)cc(OCC(O)CCCl)c1 (stereo not drawn) has a melting point of 74 to 76 °C. For CCOC(=O)c1cnc2c(cnn2Cc2ccncc2)c1O, the melting point was 140 °C. In the case of O=S(=O)(c1ccccc1)n1cc(-c2ccnc(N[C@H]3CC[C@H](O)CC3)n2)c2ccccc21, the melting point is reported as 132 to 133 °C. Work on Cc1cc(=O)n(C)c2nc(-c3ccncc3)nn12 yielded a melting point of 195 to 197 °C. With COc1ccc(NC(=O)N2CCCC2=O)cc1 the melting point was 113 to 114 °C. CC(=O)N1CCC2(CC1)Nc1cc(C)ccc1-n1cccc12 gave a melting point of 212 to 213 °C. Compound Cc1c(OCC(C)(C)CS(N)(=O)=O)nn2ncnc2c1C has a melting point of 175 to 177 °C. FC(F)(F)c1ccc2c(c1)Sc1ccccc1NC2=S showed a melting point of 236 to 239 °C. COc1ccc(C2(O)c3ccccc3-c3ccccc32)cc1 gave a melting point of 91 to 93 °C. Work on CCc1nc2cc(OC)c(OC)cc2c(-c2ccc(OC)c(OC)c2)c1C(=O)O yielded a melting point of 264 to 267 °C. With O=C(O)c1cccc(CCl)c1 the melting point was 134 to 136 °C. In the case of COC(=O)Nc1nccc(Oc2ccc3c(C(=O)Nc4ccc(CN5CCN(C)CC5)c(C(F)(F)F)c4)csc3c2)n1, the melting point is reported as 205 to 206 °C. For CCC=Nc1cc(CO)cc(Nc2c3ccccc3nc3ccccc23)c1, the melting point was 262 to 263 °C. In the case of CCCCCS(=O)(=O)NC(=O)/C=C/c1ccc(OCCOC)cc1Oc1ncc(C(F)(F)F)cc1Cl, the melting point is reported as 123 to 125 °C. CC(C)(C)c1cc(/C=C/C=C/C(=O)NCCN2CCC(c3c[nH]c4ccccc34)CC2)cc(C(C)(C)C)c1O showed a melting point of 108 to 115 °C. NC(=O)C1(c2ccc(C#Cc3ccccc3)cc2)CC1 showed a melting point of 174 to 176 °C. CN(C)C(=O)c1ccccc1CC(=O)Nc1cccc(/C=C/c2nc(C3CCC3)cs2)c1 showed a melting point of 125 to 127 °C. CC1(C)CCc2c(N3CCOCC3)nc3sc4c(NCCCN5CCCC5=O)ncnc4c3c21 showed a melting point of 142 to 143 °C. For CN(C)c1cc[nH]c(=O)c1[N+](=O)[O-], the melting point was 208 to 209 °C. Work on COc1ccc(-c2ccn(C)c2-c2ccc(OC)cc2)cc1 yielded a melting point of 126 to 127 °C. CCNc1ncc2ccc(=O)n(-c3ccccc3)c2n1 gave a melting point of 193 to 195 °C. Work on O=C(O)COc1ccc(SCc2cc(-c3ccc(C(F)(F)F)cc3)no2)c2c1CCC2 yielded a melting point of 166 to 168 °C. CNC(=O)[C@@H]1C[C@H](SCc2ccc(OC)cc2)CN1 gave a melting point of 53 to 54 °C. COc1cccc2c1OC(C(=O)Nc1ccncc1)C2CC(=O)OCc1ccccc1 (stereo not drawn) gave a melting point of 165 to 166 °C. O=C(OC1CCN(Cc2ccccc2)CC1)c1ccc([N+](=O)[O-])cc1 gave a melting point of 87 to 89 °C. For c1ccc2c(=Nc3ccncc3)cc3oc4cc(N5CCCCC5)ccc4nc-3c2c1, the melting point was 267 to 268 °C. In the case of O=C(O)c1oc2ccccc2c1CCc1ccccc1, the melting point is reported as 169 to 172 °C. For CCCCc1nc2c(N)nc3ccccc3c2n1CCCCNC(=O)Nc1cccc(NC(=O)NCCCCn2c(CCCC)nc3c(N)nc4ccccc4c32)c1, the melting point was 160 to 166 °C. CC(=O)N1CCc2oc3ncccc3c(=O)c2C1 showed a melting point of 182 to 184 °C. For N#Cc1ccc(CC2CCN(C(=O)C(=O)Nc3ccc4[nH]c(=O)oc4c3)CC2)cc1, the melting point was 194 °C. Cc1cc2c(c(C(C)(C)C)c1)OC(=O)C2O (stereo not drawn) gave a melting point of 152 to 160 °C. O=C(O)CCCNCCC(=O)O gave a melting point of 148 to 151 °C. In the case of O=C1CCC(OCc2ccccc2)N1S(=O)(=O)c1ccccc1 (stereo not drawn), the melting point is reported as 80 to 81 °C. Work on CC(=O)N1CCc2cc3c(cc21)C(=O)C(=O)N3 yielded a melting point of over 250 °C. With CS(=O)(=O)c1nccc(-n2ncc3ccccc32)n1 the melting point was 177 to 181 °C. CCOC(=O)C1=CC(C(=O)c2cc(Cl)ccc2O)=CN2CCc3c([nH]c4ccc(OC)cc34)C12C(=O)OCC (stereo not drawn) gave a melting point of 230 °C. Work on CC(CN(C)C)N1c2ccccc2Sc2ccc(C(=O)NCC3CC3)cc21 (racemic) yielded a melting point of 90 °C. In the case of COc1ccc(C2=NNS(=O)(=O)Cc3cc4nsnc4cc32)cc1OC, the melting point is reported as 228 to 230 °C. In the case of CCOCCCOc1ccc(-c2ccc3c(c2)C=C(C(=O)Nc2ccc(CN(C)C4CCOCC4)cc2)CCS3(=O)=O)cc1Cl, the melting point is reported as 182 to 183 °C. For Cc1ccc2cccc(OCc3c(Cl)ccc(S(=O)(=O)N(CCCCCCCC(=O)O)Cc4ccccc4)c3Cl)c2n1, the melting point was 100 °C. CNS(=O)(=O)c1ccc(NC=C2C(=O)Nc3ccc4ncsc4c32)cc1CCOCCO gave a melting point of 165 °C. CCOC(=O)c1cc2nc(C)oc2nc1C(=O)OCC showed a melting point of 101 to 103 °C. For CC(C)(C)OC(=O)N1Cc2c(Cl)sc(Cl)c2C1, the melting point was 112 to 114 °C. In the case of COc1ccc(CNS(C)(=O)=O)cc1OC, the melting point is reported as 78 to 81 °C. Work on NNc1nc2c(Cl)cccc2s1 yielded a melting point of 232 to 235 °C. With CC(C)(C)Nc1cc(N2CCNCC2)nc(NC(C)(C)C)n1 the melting point was 142 to 145 °C. Cc1cc2c(cc1N1CCCC1)OC(=O)C2C (stereo not drawn) gave a melting point of 67 to 69 °C. CSc1ccc(CC2=C(O)CSC2=O)cc1 showed a melting point of 206 to 208 °C. Clc1ccc2c(c1)C(c1ccccc1)=NCC1CNCCN21 (stereo not drawn) gave a melting point of 132 to 135 °C. With O=c1cc(-c2ccccc2)oc2cc(OCC(O)CNCCCCc3cccnc3)ccc12 (stereo not drawn) the melting point was 116 to 119 °C. With Cc1ccc(Cl)c(Nc2ccccc2-c2n[nH]c(=S)[nH]2)c1Cl the melting point was 300 to 305 °C. For CCOc1cc2c(c3c1[nH]c1ccc(O)cc13)C(=O)N(CCN(C)C)C2=O, the melting point was 260 to 261 °C. Work on Cc1cc(-c2cc(C(F)(F)F)nc(-n3cnc(-c4cccc(S(N)(=O)=O)c4)c3)n2)ccc1C(F)(F)F yielded a melting point of 180 °C. Compound CCOC(=O)c1cn(NC=O)c2cc(Cl)c(F)cc2c1=O has a melting point of 263 to 264 °C. For COc1cc2c(cc1C(F)(F)F)c(C(=O)Nc1cccnc1)cn2C, the melting point was over 250 °C. COC(=O)CCCCC(=O)N(O)c1ccc2ccccc2c1O gave a melting point of 111 to 113 °C. With CC(C)N(c1ccc(O)cc1)S(=O)(=O)c1ccc(O)cc1 the melting point was 158 to 159 °C. Work on CC#CCOc1cc(Oc2cccc(C(C)=O)c2)ncn1 yielded a melting point of 94 °C. c1ccc(C2OC3(CCNCC3)c3ccccc32)cc1 (stereo not drawn) gave a melting point of 99 to 107 °C. In the case of O=C=Nc1ccc(OCC(=O)OCCOC(=O)COc2ccc(N=C=O)cc2)cc1, the melting point is reported as 96 to 98 °C. With CC(C#N)(CNC(=O)c1n[nH]cc1NC(=O)c1ccccn1)Cc1ccccc1 (stereo not drawn) the melting point was 196 to 197 °C. Work on O=C1c2ccccc2C(=O)N1Cc1noc(-c2ncn3c2[C@@H]2CCN2C(=O)c2ccccc2-3)n1 yielded a melting point of 290 to 292 °C. N#Cc1ncn(-c2cccc(Cl)c2F)c1I showed a melting point of 182 to 183 °C. CCc1cc2c(cc1C(CC)SCC(=O)O)OCO2 (stereo not drawn) showed a melting point of 88 to 89 °C. Work on COC(=O)c1cnc(C(=O)O)nc1 yielded a melting point of 152 to 154 °C. Work on C#CCOc1ccc2c(c1)c(-c1ccc(C(C)C)cc1)nc(=O)n2Cc1cccnc1O yielded a melting point of 121 to 123 °C. In the case of Cn1cc(C(=O)Nc2ccccc2-c2ccc(C(F)(F)F)cc2)c(C(F)F)n1, the melting point is reported as 164 to 165 °C. For COc1ccc(N2CCN(c3ncc(N)cn3)CC2)cc1, the melting point was 157 °C. With CC(C)(C)OC(=O)NCCc1cccc(O)c1 the melting point was 79 to 82 °C. With O=C(O)C1(C(=O)O)CCOCCOCCOCCOCC1 the melting point was 107 to 111 °C. With CCC1(C)CCN(c2ccc([N+](=O)[O-])cc2C(=O)c2ccc(Cl)cc2)CC1 the melting point was 105 °C.
